Measured values: patent publication US12122763B2, “Substituted piperidines for androgen receptor degradation” (UBIX THERAPEUTICS, INC., priority 2020, dated 2024)

Biological target: T1, Androgen Receptor (AR) protein (Homo sapiens, UniProt P10275, T878A)
T1 construct: endogenous in cells; host or cells: LNCaP
Assay: Androgen Receptor (AR) protein degradation assay in LNCaP cells, western blotting
Assay type: cell-based
Conditions: 20 h; for inhibition at 0.01 µM: 0.01 μM compound; for inhibition at 0.1 µM: 0.1 μM compound; for inhibition at 1 µM: 1 μM compound; for inhibition at 10 µM: 10 μM compound
How it was run: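 AR protein level was detected by western blot (ECL) against GAPDH or β-actin controls, with 8 μg lysate protein loaded per lane after BCA quantification. Lysates came from LNCaP cells exposed to test compound for 20 h, following 3 days of growth in RPMI/10% FBS.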

T1 sequence (P10275 whole entry T878A): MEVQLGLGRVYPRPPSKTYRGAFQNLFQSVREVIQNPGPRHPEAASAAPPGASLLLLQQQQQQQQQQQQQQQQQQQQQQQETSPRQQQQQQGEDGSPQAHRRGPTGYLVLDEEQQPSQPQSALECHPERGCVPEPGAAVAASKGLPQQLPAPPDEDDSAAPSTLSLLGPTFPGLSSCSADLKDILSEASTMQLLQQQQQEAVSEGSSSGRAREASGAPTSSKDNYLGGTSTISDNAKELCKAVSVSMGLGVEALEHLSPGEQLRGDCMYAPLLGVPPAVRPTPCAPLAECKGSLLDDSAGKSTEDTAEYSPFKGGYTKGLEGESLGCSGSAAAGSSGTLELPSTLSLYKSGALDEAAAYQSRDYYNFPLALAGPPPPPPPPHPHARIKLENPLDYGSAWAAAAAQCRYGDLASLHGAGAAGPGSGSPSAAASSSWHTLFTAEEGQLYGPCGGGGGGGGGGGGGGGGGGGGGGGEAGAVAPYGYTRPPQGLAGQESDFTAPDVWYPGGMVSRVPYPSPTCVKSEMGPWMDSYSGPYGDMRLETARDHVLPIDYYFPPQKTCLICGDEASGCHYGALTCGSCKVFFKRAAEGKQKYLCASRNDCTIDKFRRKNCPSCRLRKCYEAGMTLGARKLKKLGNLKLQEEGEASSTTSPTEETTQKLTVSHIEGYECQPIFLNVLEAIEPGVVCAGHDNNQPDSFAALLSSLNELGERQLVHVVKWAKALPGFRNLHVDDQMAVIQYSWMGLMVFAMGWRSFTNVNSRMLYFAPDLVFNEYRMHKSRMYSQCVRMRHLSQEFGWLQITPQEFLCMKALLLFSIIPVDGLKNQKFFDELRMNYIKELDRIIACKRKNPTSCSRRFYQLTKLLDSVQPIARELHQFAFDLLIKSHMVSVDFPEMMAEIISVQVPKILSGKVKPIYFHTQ
T1 sequence (Q96SW2 whole entry partner): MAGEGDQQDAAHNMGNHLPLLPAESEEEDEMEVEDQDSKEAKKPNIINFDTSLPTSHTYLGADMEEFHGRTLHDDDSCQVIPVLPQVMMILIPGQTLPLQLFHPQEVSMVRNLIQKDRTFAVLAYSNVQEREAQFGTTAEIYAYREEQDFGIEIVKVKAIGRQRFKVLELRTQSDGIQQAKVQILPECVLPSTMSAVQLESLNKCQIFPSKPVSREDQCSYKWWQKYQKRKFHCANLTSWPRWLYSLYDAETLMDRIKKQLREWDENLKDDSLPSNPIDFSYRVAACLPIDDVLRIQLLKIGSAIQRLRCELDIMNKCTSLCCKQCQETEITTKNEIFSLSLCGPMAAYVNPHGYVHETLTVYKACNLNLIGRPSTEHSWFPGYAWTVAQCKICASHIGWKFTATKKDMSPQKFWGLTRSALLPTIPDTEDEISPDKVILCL

| Structure (SMILES) | inhibition at 0.01 µM | inhibition at 0.1 µM | inhibition at 1 µM | inhibition at 10 µM |
| --- | --- | --- | --- | --- |
| C[C@H]1CN(CC2CCN(c3ccc(NC(=O)C4CCN(c5ccc(C#N)c(C(F)(F)F)c5)CC4)nc3)CC2)CCN1CC1CCN(c2ccc3c(n2)CN(C2CCC(=O)NC2=O)C3=O)CC1 (stereo partly drawn) [Example 48, 1-(4-cyano-3-(trifluoromethyl)phenyl)-N-(5-(4-(((3S)-4-((1-(6-(2,6-dioxopiperidin-3-yl)-5-oxo-6,7-dihydro-5H-pyrrolo[3,4-b]pyridin-2-yl)piperidin-4-yl)methyl)-3-methylpiperazin-1-yl)methyl)piperidin-1-yl)pyridin-2-yl)piperidine-4-carboxamide] | 59% | 94% | 87% |  |
| N#Cc1ccc(N2CCC(C(=O)Nc3ccc(N4CCC(CN5CC6(CCN(c7ccc8c(c7)C(=O)N(C7CCC(=O)NC7=O)C8=O)CC6)C5)CC4)cn3)CC2)cc1Cl (stereo not shown) [Example 50, 1-(3-chloro-4-cyanophenyl)-N-(5-(4-((7-(2-(2,6-dioxopiperidin-3-yl)-1,3-dioxoisoindolin-5-yl)-2,7-diazaspiro[3.5]nonan-2-yl)methyl)piperidin-1-yl)pyridin-2-yl)piperidine-4-carboxamide] | 61% | 97% | 99% | 98% |
| CC1(C(=O)Nc2ccc(N3CCC(CN4CC5(CCN(c6ccc7c(c6)C(=O)N(C6CCC(=O)NC6=O)C7=O)CC5)C4)CC3)cn2)CCN(c2ccc(C#N)c(C(F)(F)F)c2)CC1 (stereo not shown) [Example 51, 1-(4-cyano-3-(trifluoromethyl)phenyl)-N-(5-(4-((7-(2-(2,6-dioxopiperidin-3-yl)-1,3-dioxoisoindolin-5-yl)-2,7-diazaspiro[3.5]nonan-2-yl)methyl)piperidin-1-yl)pyridin-2-yl)-4-methylpiperidine-4-carboxamide] | 33% | 85% | 94% |  |
| N#Cc1ccc(N2CCC(C(=O)Nc3ccc(N4CCC(CN5CC6(CCN(c7ccc8c(=O)n(C9CCC(=O)NC9=O)nnc8c7)CC6)C5)CC4)cn3)CC2)cc1C(F)(F)F (stereo not shown) [Example 52, 1-(4-cyano-3-(trifluoromethyl)phenyl)-N-(5-(4-((7-(3-(2,6-dioxopiperidin-3-yl)-4-oxo-3,4-dihydrobenzo[d][1,2,3]triazin-7-yl)-2,7-diazaspiro[3.5]nonan-2-yl)methyl)piperidin-1-yl)pyridin-2-yl)piperidine-4-carboxamide] | 50% | 91% | 97% |  |
| N#Cc1ccc(N2CCC(C(=O)Nc3ccc(N4CCC(CN5CC6(CCN(c7ccc8nnn(C9CCC(=O)NC9=O)c(=O)c8c7)CC6)C5)CC4)cn3)CC2)cc1C(F)(F)F (stereo not shown) [Example 53, 1-(4-cyano-3-(trifluoromethyl)phenyl)-N-(5-(4-((7-(3-(2,6-dioxopiperidin-3-yl)-4-oxo-3,4-dihydrobenzo[d][1,2,3]triazin-6-yl)-2,7-diazaspiro[3.5]nonan-2-yl)methyl)piperidin-1-yl)pyridin-2-yl)piperidine-4-carboxamide] | 27% | 89% | 93% |  |
| N#Cc1ccc(N2CCC(F)(C(=O)Nc3ccc(N4CCC(CN5CC6(CCN(c7ccc8c(c7)C(=O)N(C7CCC(=O)NC7=O)C8=O)CC6)C5)CC4)cn3)CC2)cc1C(F)(F)F (stereo not shown) [Example 54, 1-(4-cyano-3-(trifluoromethyl)phenyl)-N-(5-(4-((7-(2-(2,6-dioxopiperidin-3-yl)-1,3-dioxoisoindolin-5-yl)-2,7-diazaspiro[3.5]nonan-2-yl)methyl)piperidin-1-yl)pyridin-2-yl)-4-fluoropiperidine-4-carboxamide] | 60% | 95% | 98% |  |
| N#Cc1ccc(N2CCC(O)(C(=O)Nc3ccc(N4CCC(CN5CC6(CCN(c7ccc8c(c7)C(=O)N(C7CCC(=O)NC7=O)C8=O)CC6)C5)CC4)cn3)CC2)cc1C(F)(F)F (stereo not shown) [Example 55, 1-(4-cyano-3-(trifluoromethyl)phenyl)-N-(5-(4-((7-(2-(2,6-dioxopiperidin-3-yl)-1,3-dioxoisoindolin-5-yl)-2,7-diazaspiro[3.5]nonan-2-yl)methyl)piperidin-1-yl)pyridin-2-yl)-4-hydroxypiperidine-4-carboxamide] | 34% | 69% | 95% |  |
| N#Cc1ccc(N2CCC(CC(=O)Nc3ccc(N4CCC(CN5CC6(CCN(c7ccc8c(c7)C(=O)N(C7CCC(=O)NC7=O)C8=O)CC6)C5)CC4)cn3)C2)cc1C(F)(F)F (stereo not shown) [Example 56, 2-(1-(4-cyano-3-(trifluoromethyl)phenyl)pyrrolidin-3-yl)-N-(5-(4-((7-(2-(2,6-dioxopiperidin-3-yl)-1,3-dioxoisoindolin-5-yl)-2,7-diazaspiro[3.5]nonan-2-yl)methyl)piperidin-1-yl)pyridin-2-yl)acetamide] | -8% | 87% | 95% |  |
| N#Cc1ncc(N2CCC(C(=O)Nc3ccc(N4CCC(CN5CC6(CCN(c7ccc8c(c7)C(=O)N(C7CCC(=O)NC7=O)C8=O)CC6)C5)CC4)cn3)CC2)cc1C(F)(F)F (stereo not shown) [Example 57, 1-(6-cyano-5-(trifluoromethyl)pyridin-3-yl)-N-(5-(4-((7-(2-(2,6-dioxopiperidin-3-yl)-1,3-dioxoisoindolin-5-yl)-2,7-diazaspiro[3.5]nonan-2-yl)methyl)piperidin-1-yl)pyridin-2-yl)piperidine-4-carboxamide] | 43% | 85% | 96% |  |
| N#Cc1ncc(N2CCC(F)(C(=O)Nc3ccc(N4CCC(CN5CC6(CCN(c7ccc8c(c7)C(=O)N(C7CCC(=O)NC7=O)C8=O)CC6)C5)CC4)cn3)CC2)cc1C(F)(F)F (stereo not shown) [Example 58, 1-(6-cyano-5-(trifluoromethyl)pyridin-3-yl)-N-(5-(4-((7-(2-(2,6-dioxopiperidin-3-yl)-1,3-dioxoisoindolin-5-yl)-2,7-diazaspiro[3.5]nonan-2-yl)methyl)piperidin-1-yl)pyridin-2-yl)-4-fluoropiperidine-4-carboxamide] | 16% | 41% | 77% |  |
| N#Cc1ccc(N2CCC(C(=O)Nc3ccc(N4CCC(CN5CC6(CCN(c7ccc8c(c7)C(=O)N(C7CCC(=O)NC7=O)C8=O)CC6)C5)CC4)nc3)CC2)cc1C(F)(F)F (stereo not shown) [Example 59, 1-(4-cyano-3-(trifluoromethyl)phenyl)-N-(6-(4-((7-(2-(2,6-dioxopiperidin-3-yl)-1,3-dioxoisoindolin-5-yl)-2,7-diazaspiro[3.5]nonan-2-yl)methyl)piperidin-1-yl)pyridin-3-yl)piperidine-4-carboxamide] | 9% | 32% | 47% | 68% |
| N#Cc1ccc(N2CCC(C(=O)Nc3ccc(N4CCC(CN5CC6(CCN(c7ccc8c(c7)C(=O)N(C7CCC(=O)NC7=O)C8=O)CC6)C5)CC4)nc3)CC2)cc1Cl (stereo not shown) [Example 60, 1-(3-chloro-4-cyanophenyl)-N-(6-(4-((7-(2-(2,6-dioxopiperidin-3-yl)-1,3-dioxoisoindolin-5-yl)-2,7-diazaspiro[3.5]nonan-2-yl)methyl)piperidin-1-yl)pyridin-3-yl)piperidine-4-carboxamide] | 16% | 32% | 32% | 66% |
| N#Cc1ccc(N2CCC(C(=O)Nc3ccc(N4CC[C@@H](CN5CC6(CCN(c7ccc8c(c7)C(=O)N(C7CCC(=O)NC7=O)C8=O)CC6)C5)C4)cn3)CC2)cc1C(F)(F)F (stereo partly drawn) [Example 61, 1-(4-cyano-3-(trifluoromethyl)phenyl)-N-(5-((3S)-3-((7-(2-(2,6-dioxopiperidin-3-yl)-1,3-dioxoisoindolin-5-yl)-2,7-diazaspiro[3.5]nonan-2-yl)methyl)pyrrolidin-1-yl)pyridin-2-yl)piperidine-4-carboxamide] | 57% | 94.5% | 97.5% | 96% |
| N#Cc1ccc(N2CCC(C(=O)Nc3ccc(N4CC[C@H](CN5CC6(CCN(c7ccc8c(c7)C(=O)N(C7CCC(=O)NC7=O)C8=O)CC6)C5)C4)cn3)CC2)cc1C(F)(F)F (stereo partly drawn) [Example 62, 1-(4-cyano-3-(trifluoromethyl)phenyl)-N-(5-((3R)-3-((7-(2-(2,6-dioxopiperidin-3-yl)-1,3-dioxoisoindolin-5-yl)-2,7-diazaspiro[3.5]nonan-2-yl)methyl)pyrrolidin-1-yl)pyridin-2-yl)piperidine-4-carboxamide] | 69% | 95% | 96% | 87.5% |
| N#Cc1ccc(N2CCC(C(=O)Nc3ccc(N4CCC(CN5CCC6(CC5)CN(c5ccc7c(c5)C(=O)N(C5CCC(=O)NC5=O)C7=O)C6)CC4)cn3)CC2)cc1C(F)(F)F (stereo not shown) [Example 63, 1-(4-cyano-3-(trifluoromethyl)phenyl)-N-(5-(4-((2-(2-(2,6-dioxopiperidin-3-yl)-1,3-dioxoisoindolin-5-yl)-2,7-diazaspiro[3.5]nonan-7-yl)methyl)piperidin-1-yl)pyridin-2-yl)piperidine-4-carboxamide] | 45% | 94% | 98.5% | 94.5% |
| N#Cc1ccc(N2CCC(C(=O)Nc3ccc(N4CCC(CN5CCC6(CC5)CN(c5ccc7c(c5)C(=O)N(C5CCC(=O)NC5=O)C7=O)C6)CC4)cn3)CC2)cc1Cl (stereo not shown) [Example 64, 1-(3-chloro-4-cyanophenyl)-N-(5-(4-((2-(2-(2,6-dioxopiperidin-3-yl)-1,3-dioxoisoindolin-5-yl)-2,7-diazaspiro[3.5]nonan-7-yl)methyl)piperidin-1-yl)pyridin-2-yl)piperidine-4-carboxamide] | 71.5% | 97% | 98.5% | 98.5% |
